From patent publication US10670605B2, “Cysteine reactive probes and uses thereof” (The Scripps Research Institute, priority 2015, dated 2020)

Key:
Experiment in all cases: Competitive isoTOP-ABPP in situ (fragment-treated cells)
Format in all cases: cell-based
[1] = target: T1, cysteines in MDA-MB-231 and Ramos cells (Homo sapiens, UniProt Q96CM8)
T1 sequence (Q96CM8 42-615): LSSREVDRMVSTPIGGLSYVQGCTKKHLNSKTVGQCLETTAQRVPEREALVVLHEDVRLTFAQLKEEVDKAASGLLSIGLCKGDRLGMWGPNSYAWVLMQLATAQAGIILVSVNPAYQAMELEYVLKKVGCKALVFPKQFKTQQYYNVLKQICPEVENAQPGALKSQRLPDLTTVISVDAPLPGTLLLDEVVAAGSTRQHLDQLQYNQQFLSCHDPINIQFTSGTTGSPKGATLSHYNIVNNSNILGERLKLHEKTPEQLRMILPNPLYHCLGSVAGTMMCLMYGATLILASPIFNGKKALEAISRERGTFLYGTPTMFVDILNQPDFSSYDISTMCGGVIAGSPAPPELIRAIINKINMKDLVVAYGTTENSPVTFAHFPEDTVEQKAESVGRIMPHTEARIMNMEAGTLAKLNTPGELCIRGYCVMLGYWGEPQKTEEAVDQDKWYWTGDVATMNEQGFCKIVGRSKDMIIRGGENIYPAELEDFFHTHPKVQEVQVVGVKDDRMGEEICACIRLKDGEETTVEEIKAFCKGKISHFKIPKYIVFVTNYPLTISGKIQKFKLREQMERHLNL

[2] = target: T2, cysteines in MDA-MB-231 and Ramos cells (Homo sapiens, UniProt Q5T0N5)
T2 sequence (Q5T0N5 1-605): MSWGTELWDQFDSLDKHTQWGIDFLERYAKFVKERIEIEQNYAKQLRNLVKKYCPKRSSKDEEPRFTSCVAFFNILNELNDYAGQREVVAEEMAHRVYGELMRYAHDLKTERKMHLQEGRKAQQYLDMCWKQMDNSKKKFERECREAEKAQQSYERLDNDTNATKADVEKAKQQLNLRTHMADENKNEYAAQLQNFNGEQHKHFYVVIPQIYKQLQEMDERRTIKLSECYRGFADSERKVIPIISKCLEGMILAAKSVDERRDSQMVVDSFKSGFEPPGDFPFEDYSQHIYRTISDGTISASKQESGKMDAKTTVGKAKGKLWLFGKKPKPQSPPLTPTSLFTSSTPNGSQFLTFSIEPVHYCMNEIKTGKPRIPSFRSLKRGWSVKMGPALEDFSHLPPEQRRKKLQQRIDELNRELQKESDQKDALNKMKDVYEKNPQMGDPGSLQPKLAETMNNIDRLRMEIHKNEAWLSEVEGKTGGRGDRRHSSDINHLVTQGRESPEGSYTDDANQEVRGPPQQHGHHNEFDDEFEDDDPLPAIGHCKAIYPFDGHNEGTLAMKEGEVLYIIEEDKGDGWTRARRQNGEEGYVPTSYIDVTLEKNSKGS

[3] = target: T3, cysteines in MDA-MB-231 and Ramos cells (Homo sapiens, UniProt Q96S55)
T3 sequence (Q96S55 1-665): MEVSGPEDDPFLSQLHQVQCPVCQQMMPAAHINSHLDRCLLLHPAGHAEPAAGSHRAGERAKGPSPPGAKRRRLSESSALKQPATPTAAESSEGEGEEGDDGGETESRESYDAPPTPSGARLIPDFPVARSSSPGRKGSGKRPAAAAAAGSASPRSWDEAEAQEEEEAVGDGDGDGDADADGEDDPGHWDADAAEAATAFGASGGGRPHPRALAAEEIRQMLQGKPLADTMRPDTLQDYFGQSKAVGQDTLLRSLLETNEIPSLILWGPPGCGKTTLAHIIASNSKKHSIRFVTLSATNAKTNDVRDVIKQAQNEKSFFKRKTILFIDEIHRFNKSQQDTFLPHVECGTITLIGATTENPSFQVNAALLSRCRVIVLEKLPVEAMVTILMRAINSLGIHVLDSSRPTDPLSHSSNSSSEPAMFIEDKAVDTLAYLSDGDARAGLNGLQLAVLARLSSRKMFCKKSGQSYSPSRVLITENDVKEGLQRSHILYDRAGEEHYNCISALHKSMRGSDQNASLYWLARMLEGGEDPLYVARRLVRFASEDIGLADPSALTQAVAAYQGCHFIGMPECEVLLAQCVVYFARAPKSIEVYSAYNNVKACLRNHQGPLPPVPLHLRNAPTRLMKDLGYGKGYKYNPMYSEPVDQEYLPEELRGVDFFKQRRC

[4] = target: cysteines in MDA-MB-231 and Ramos cells (Homo sapiens, UniProt O60610)
cysteines in MDA-MB-231 and Ramos cells (Homo sapiens, UniProt O60610), sequence (O60610 whole entry): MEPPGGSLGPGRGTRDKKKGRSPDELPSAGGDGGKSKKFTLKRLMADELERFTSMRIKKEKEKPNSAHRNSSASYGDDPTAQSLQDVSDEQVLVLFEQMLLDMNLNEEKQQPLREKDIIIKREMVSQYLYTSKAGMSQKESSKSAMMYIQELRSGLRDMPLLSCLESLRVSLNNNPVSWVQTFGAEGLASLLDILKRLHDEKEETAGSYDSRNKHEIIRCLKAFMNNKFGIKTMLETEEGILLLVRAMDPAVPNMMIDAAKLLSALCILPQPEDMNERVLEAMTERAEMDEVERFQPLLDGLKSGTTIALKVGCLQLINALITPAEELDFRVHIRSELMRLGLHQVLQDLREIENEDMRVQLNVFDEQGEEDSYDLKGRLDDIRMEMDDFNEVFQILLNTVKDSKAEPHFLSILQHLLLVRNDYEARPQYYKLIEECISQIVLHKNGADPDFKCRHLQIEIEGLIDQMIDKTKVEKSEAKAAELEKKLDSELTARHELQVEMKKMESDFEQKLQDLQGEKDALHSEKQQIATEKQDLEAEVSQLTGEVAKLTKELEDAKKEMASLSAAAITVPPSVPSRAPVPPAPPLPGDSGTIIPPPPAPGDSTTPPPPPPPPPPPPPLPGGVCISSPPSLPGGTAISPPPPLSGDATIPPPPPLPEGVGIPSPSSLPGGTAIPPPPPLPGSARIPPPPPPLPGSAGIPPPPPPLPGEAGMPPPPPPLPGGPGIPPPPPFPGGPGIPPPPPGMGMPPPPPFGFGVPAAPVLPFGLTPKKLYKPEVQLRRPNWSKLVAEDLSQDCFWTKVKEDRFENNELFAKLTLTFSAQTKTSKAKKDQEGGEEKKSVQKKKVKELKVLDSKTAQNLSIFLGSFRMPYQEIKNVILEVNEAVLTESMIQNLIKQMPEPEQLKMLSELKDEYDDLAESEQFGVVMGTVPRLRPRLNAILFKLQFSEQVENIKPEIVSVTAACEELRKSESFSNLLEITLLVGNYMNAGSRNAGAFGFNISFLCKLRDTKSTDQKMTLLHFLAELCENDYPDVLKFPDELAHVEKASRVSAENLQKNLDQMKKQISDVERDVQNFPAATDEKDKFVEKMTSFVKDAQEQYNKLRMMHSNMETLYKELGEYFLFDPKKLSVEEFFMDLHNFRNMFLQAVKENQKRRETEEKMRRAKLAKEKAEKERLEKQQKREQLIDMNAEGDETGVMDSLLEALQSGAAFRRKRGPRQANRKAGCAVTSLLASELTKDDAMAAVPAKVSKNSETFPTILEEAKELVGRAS

[5] = target: cysteines in MDA-MB-231 and Ramos cells (Homo sapiens, UniProt Q16831)
cysteines in MDA-MB-231 and Ramos cells (Homo sapiens, UniProt Q16831), sequence (Q16831 whole entry): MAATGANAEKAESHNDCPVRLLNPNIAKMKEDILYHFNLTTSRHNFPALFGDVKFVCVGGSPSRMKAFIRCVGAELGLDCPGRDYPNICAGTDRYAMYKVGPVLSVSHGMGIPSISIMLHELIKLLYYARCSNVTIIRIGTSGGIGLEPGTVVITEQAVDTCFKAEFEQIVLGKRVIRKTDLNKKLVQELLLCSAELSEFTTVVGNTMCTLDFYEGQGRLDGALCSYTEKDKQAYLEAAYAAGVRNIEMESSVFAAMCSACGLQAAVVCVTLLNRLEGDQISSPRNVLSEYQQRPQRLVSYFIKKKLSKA

[6] = target: cysteines in MDA-MB-231 and Ramos cells (Homo sapiens, UniProt Q9ULV4)
cysteines in MDA-MB-231 and Ramos cells (Homo sapiens, UniProt Q9ULV4), sequence (Q9ULV4 whole entry): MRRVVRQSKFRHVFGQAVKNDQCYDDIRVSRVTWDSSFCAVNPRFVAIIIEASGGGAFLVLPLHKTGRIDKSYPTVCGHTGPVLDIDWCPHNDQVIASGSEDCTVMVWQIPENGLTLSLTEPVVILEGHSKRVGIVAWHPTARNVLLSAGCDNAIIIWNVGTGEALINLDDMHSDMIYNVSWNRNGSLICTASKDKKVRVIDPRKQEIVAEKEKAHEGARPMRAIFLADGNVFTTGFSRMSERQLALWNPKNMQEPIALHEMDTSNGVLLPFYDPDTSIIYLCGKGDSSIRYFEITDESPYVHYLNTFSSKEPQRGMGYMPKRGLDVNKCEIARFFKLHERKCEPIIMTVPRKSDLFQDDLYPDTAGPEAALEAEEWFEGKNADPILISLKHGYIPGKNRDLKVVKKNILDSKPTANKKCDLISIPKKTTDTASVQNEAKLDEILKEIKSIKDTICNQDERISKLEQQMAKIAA

[7] = target: cysteines in MDA-MB-231 and Ramos cells (Homo sapiens, UniProt Q02252)
cysteines in MDA-MB-231 and Ramos cells (Homo sapiens, UniProt Q02252), sequence (Q02252 34-535): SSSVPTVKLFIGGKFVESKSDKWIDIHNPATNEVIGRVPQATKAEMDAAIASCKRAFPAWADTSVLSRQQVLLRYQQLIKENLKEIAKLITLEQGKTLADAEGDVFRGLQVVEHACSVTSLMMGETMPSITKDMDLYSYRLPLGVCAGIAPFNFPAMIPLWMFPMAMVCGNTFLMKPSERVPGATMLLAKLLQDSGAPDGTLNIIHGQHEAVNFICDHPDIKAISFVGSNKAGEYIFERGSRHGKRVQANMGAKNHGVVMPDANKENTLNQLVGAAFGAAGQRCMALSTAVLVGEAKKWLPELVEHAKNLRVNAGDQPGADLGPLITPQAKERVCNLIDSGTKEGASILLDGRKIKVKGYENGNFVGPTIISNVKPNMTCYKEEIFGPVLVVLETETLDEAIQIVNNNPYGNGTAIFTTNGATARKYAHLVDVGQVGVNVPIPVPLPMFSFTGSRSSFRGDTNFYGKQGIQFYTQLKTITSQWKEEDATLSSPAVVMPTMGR

[8] = target: T4, cysteines in MDA-MB-231 and Ramos cells (Homo sapiens, UniProt P52597)
T4 sequence (P52597 1-415): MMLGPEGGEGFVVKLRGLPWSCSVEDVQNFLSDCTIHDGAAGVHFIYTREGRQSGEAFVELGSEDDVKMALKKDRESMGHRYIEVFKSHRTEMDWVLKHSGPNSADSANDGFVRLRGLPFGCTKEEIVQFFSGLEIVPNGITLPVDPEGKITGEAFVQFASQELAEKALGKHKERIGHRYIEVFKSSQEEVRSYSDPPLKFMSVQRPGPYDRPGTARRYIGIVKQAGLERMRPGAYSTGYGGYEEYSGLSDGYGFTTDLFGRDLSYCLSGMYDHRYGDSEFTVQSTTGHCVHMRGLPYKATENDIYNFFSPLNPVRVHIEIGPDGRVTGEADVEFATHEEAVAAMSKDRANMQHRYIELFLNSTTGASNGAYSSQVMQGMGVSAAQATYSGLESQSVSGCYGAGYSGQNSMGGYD

Row | isoTOP-ABPP ratio Q96CM8_C64 ([1]; 200 μM, insitu, 231) | isoTOP-ABPP ratio Q5T0N5_C69 ([2]; 200 μM, insitu, 231) | isoTOP-ABPP ratio Q96S55_C272 ([3]; 200 μM, insitu, 231) | isoTOP-ABPP ratio O60610_C1227 ([4]; 200 μM, insitu, 231) | isoTOP-ABPP ratio Q16831_C162 ([5]; 200 μM, insitu, 231) | isoTOP-ABPP ratio Q9ULV4_C420 ([6]; 200 μM, insitu, 231) | isoTOP-ABPP ratio Q02252_C317 ([7]; 200 μM, insitu, 231) | isoTOP-ABPP ratio P52597_C267 ([8]; 200 μM, insitu, 231) | SMILES | also measured
1 |  |  |  |  |  |  |  |  | COc1ccc2c(c1)CCCN2C(=O)CCl [compound 2] | isoTOP-ABPP reactivity Q96CM8_C64 ACSF2 ([1]; 200 μM, insitu, 231): 20.0; isoTOP-ABPP reactivity Q5T0N5_C69 FNBP1L ([2]; 200 μM, insitu, 231): 20.0; isoTOP-ABPP reactivity Q96S55_C272 WRNIP1 ([3]; 200 μM, insitu, 231): 2.2; isoTOP-ABPP reactivity O60610_C1227 DIAPH1 ([4]; 200 μM, insitu, 231): 2.2; isoTOP-ABPP reactivity Q16831_C162 UPP1 ([5]; 200 μM, insitu, 231): 1.2; isoTOP-ABPP reactivity Q9ULV4_C420 CORO1C ([6]; 200 μM, insitu, 231): 3.0; isoTOP-ABPP reactivity Q02252_C317 ALDH6A1 ([7]; 200 μM, insitu, 231): 10.3; isoTOP-ABPP reactivity P52597_C267 HNRNPF ([8]; 200 μM, insitu, 231): 4.2
2 |  |  |  |  |  |  |  |  | COc1ccc(C2CC(c3cccs3)=NN2C(=O)CCl)cc1 (stereo not drawn) [compound 4] | isoTOP-ABPP reactivity Q96CM8_C64 ACSF2 ([1]; 100 μM in situ 231): 20.0; isoTOP-ABPP reactivity Q5T0N5_C69 FNBP1L ([2]; 100 μM in situ 231): 20.0; isoTOP-ABPP reactivity Q96S55_C272 WRNIP1 ([3]; 100 μM in situ 231): 3.7; isoTOP-ABPP reactivity O60610_C1227 DIAPH1 ([4]; 100 μM in situ 231): 1.6; isoTOP-ABPP reactivity Q16831_C162 UPP1 ([5]; 100 μM in situ 231): 1.0; isoTOP-ABPP reactivity Q9ULV4_C420 CORO1C ([6]; 100 μM in situ 231): 1.3; isoTOP-ABPP reactivity Q02252_C317 ALDH6A1 ([7]; 100 μM in situ 231): 14.4; isoTOP-ABPP reactivity P52597_C267 HNRNPF ([8]; 100 μM in situ 231): 20.0
3 |  |  |  |  |  |  |  |  | COc1cc2c(cc1OC)CN(C(=O)CCl)CC2 [compound 8] | isoTOP-ABPP reactivity Q96CM8_C64 ACSF2 ([1]; 200 μM, insitu, 231): 20.0; isoTOP-ABPP reactivity Q5T0N5_C69 FNBP1L ([2]; 200 μM, insitu, 231): 3.6; isoTOP-ABPP reactivity Q96S55_C272 WRNIP1 ([3]; 200 μM, insitu, 231): 1.2; isoTOP-ABPP reactivity Q16831_C162 UPP1 ([5]; 200 μM, insitu, 231): 20.0; isoTOP-ABPP reactivity Q9ULV4_C420 CORO1C ([6]; 200 μM, insitu, 231): 4.6
4 |  |  |  |  |  |  |  |  | O=C(CCl)N1CCC(Cc2ccccc2)CC1 [compound 9] | isoTOP-ABPP reactivity Q96S55_C272 WRNIP1 ([3]; 200 μM, insitu, 231): 4.5; isoTOP-ABPP reactivity O60610_C1227 DIAPH1 ([4]; 200 μM, insitu, 231): 1.5; isoTOP-ABPP reactivity Q16831_C162 UPP1 ([5]; 200 μM, insitu, 231): 7.7; isoTOP-ABPP reactivity Q9ULV4_C420 CORO1C ([6]; 200 μM, insitu, 231): 2.0; isoTOP-ABPP reactivity P52597_C267 HNRNPF ([8]; 200 μM, insitu, 231): 3.2
5 | 20.0 | 2.0 | 1.2 | 1.5 | 7.3 | 3.4 | 1.5 | 2.5 | O=C(CCl)N1CCN(S(=O)(=O)c2ccccc2F)CC1 [compound 10] | isoTOP-ABPP ratio O60610_C1227 ([4]; 200 μM, insitu, ramos): 1.4; isoTOP-ABPP ratio Q02252_C317 ([7]; 200 μM, insitu, ramos): 0.7; isoTOP-ABPP ratio P52597_C267 ([8]; 200 μM, insitu, ramos): 2.4
6 |  |  |  |  |  |  |  |  | Cn1cc(S(=O)(=O)N2CCOCC2)cc1C(=O)NC(=O)CCl [compound 11] | isoTOP-ABPP ratio Q96CM8_C64 ([1]; 100 μM in situ 231): 1.5; isoTOP-ABPP ratio Q5T0N5_C69 ([2]; 100 μM in situ 231): 1.3; isoTOP-ABPP ratio O60610_C1227 ([4]; 100 μM in situ 231): 0.9; isoTOP-ABPP ratio Q16831_C162 ([5]; 100 μM in situ 231): 0.8; isoTOP-ABPP ratio Q9ULV4_C420 ([6]; 100 μM in situ 231): 0.9; isoTOP-ABPP ratio Q02252_C317 ([7]; 100 μM in situ 231): 0.9; isoTOP-ABPP ratio P52597_C267 ([8]; 100 μM in situ 231): 1.0
7 | 17.9 | 20.0 | 2.4 | 0.8 | 0.9 | 2.2 | 3.2 | 6.8 | O=C(CCl)NC(=O)NC12CC3CC(CC(C3)C1)C2 [compound 12] | 
8 | 1.4 | 1.0 | 0.7 | 0.7 | 1.0 | 1.1 | 1.3 | 1.2 | O=C(CCl)NCCc1c[nH]c2ccccc12 [compound 13] | isoTOP-ABPP ratio O60610_C1227 ([4]; 200 μM, insitu, ramos): 0.9; isoTOP-ABPP ratio Q9ULV4_C420 ([6]; 200 μM, insitu, ramos): 1.1; isoTOP-ABPP ratio P52597_C267 ([8]; 200 μM, insitu, ramos): 1.3
9 | 2.0 | 0.8 | 1.3 | 20.0 | 1.6 | 1.3 | 1.5 | 1.5 | O=C(CCl)NC12CC3CC(CC(C3)C1)C2 [compound 21] | 
10 | 1.8 | 0.6 | 0.9 | 0.5 | 0.5 | 0.8 | 2.0 | 1.0 | CC(C)CCOCCNC(=O)CCl [compound 27] | 
11 |  |  | 0.5 |  | 0.7 | 0.7 | 1.1 |  | COc1ccccc1OCCNC(=O)CCl [compound 28] | 
12 |  |  |  |  |  |  |  |  | O=C(CCl)N1CCN(CC(=O)N2CCOCC2)CC1 [compound 29] | isoTOP-ABPP ratio Q96CM8_C64 ([1]; 200 μM, insitu, ramos): 2.3; isoTOP-ABPP ratio O60610_C1227 ([4]; 200 μM, insitu, ramos): 1.6; isoTOP-ABPP ratio Q02252_C317 ([7]; 200 μM, insitu, ramos): 1.2; isoTOP-ABPP ratio P52597_C267 ([8]; 200 μM, insitu, ramos): 1.2
13 | 0.8 |  |  | 0.6 |  | 0.8 |  | 1.2 | C=CC(=O)N(Cc1cccnc1)c1cc(C(F)(F)F)cc(C(F)(F)F)c1 [compound 31] | isoTOP-ABPP ratio O60610_C1227 ([4]; 200 μM, insitu, ramos): 1.2; isoTOP-ABPP ratio Q9ULV4_C420 ([6]; 200 μM, insitu, ramos): 1.1; isoTOP-ABPP ratio P52597_C267 ([8]; 200 μM, insitu, ramos): 1.3
14 | 1.1 | 1.5 | 1.3 | 0.3 | 1.4 | 1.4 | 2.4 | 1.8 | C=CC(=O)Nc1cc(F)c(N2CCN(C(=O)OC(C)(C)C)CC2)c(F)c1 [compound 38] | 
15 | 0.8 | 0.6 | 0.8 | 0.6 | 0.8 | 0.8 | 0.8 | 0.8 | Cc1ccc(C=C(C#N)C(=O)NCCN2CCOCC2)cc1 [compound 41] | 
16 | 20.0 | 5.4 | 2.5 | 3.0 | 1.3 | 3.2 | 2.6 | 4.1 | CC1CCc2ccccc2N1C(=O)CCl (stereo not drawn) [compound 45] | 
17 |  | 1.7 | 0.9 |  | 1.1 | 1.1 |  | 1.3 | O=C(CCl)Nc1cccc2ncccc12 [compound 51] | 
